Laboratory results taken from patent publication US7078403B1, “Antiviral agents” (Biota Scientific Management Pty Ltd., priority 1999, dated 2006).
Values after ≈ are worked out from the molar mass of the structure shown. Where two headings read alike, the source gives them in different places.

Key:
HRV type 1A = test: Inhibition of viral cytopathic effect (CPE), visual scoring or neutral red, HRV type 1A in MRC-5 cells; type: cell-based, human rhinovirus; settings: for Activity on Rhinovirus Type 1A EC50: HRV type 1A in MRC-5 cells; for Activity on Rhinovirus Type 1A EC50 / EC50: CPE inhibition; for Activity on Rhinovirus Type 1A SI: selectivity index = CC50 or MTC divided by EC50, HRV type 1A, MRC-5 cells; for EC50: Enterovirus, MRC5, HRV type 1A in MRC-5 cells, read-out: Activity on Rhinovirus Type 1A EC50
HRV type 2 = test: Inhibition of viral cytopathic effect (CPE), visual scoring or neutral red, HRV type 2 in KB cells; type: cell-based, human rhinovirus; settings: for Activity on Rhinovirus Type 2 EC50: HRV type 2 in KB cells, CPE inhibition; for Activity on Rhinovirus Type 2 SI: selectivity index = CC50 or MTC divided by EC50, HRV type 2, KB cells
Rhinovirus Type 14 = type: cell-based, human rhinovirus; settings: for EC50: Enterovirus
[1] = tested on: human embryo lung (MRC-5) cells; test: Cytotoxicity (CC50 or MTC) in uninfected MRC-5 cells; settings: unit not given
[2] = tested on: Human Rhinovirus strains 1B, 3, 4, 5, 6, 8, 9, 11, 12, 13, 16, 17, 21, 25, 30, 32, 33, 38, 39, 40, 42, 43, 45, 48, 52, 54, 56, 57, 59, 60, 63, 67, 68, 69, 72 …; test: Standard CPE reduction assay against a panel of Human Rhinovirus strains; type: cell-based; settings: HRV strains panel
[3] = tested on: human embryo lung (MRC-5) cells
in vitro = settings: mammalian cell culture (cell line not stated)
Enterovirus 70 = test: Activity on Enterovirus 70 in mammalian cell culture assay; type: cell-based; settings: Enterovirus D
Coxsackie A21 = test: Activity on Coxsackie A21 in mammalian cell culture assay; type: cell-based
[4] = HRV14, HRV-14, read-out: Activity on Rhinovirus Type 14 EC50

Row | SMILES | Activity on Rhinovirus Type 1A EC50 (HRV type 1A) [µg/mL] | Activity on Rhinovirus Type 1A SI (HRV type 1A) | Activity on Rhinovirus Type 2 EC50 (HRV type 2) [µg/mL] | Activity on Rhinovirus Type 2 SI (HRV type 2) | Activity on Rhinovirus Type 14 EC50 (Rhinovirus Type 14; HRV-14) [µg/mL] | Activity on Rhinovirus Type 1A MTC [1] | CC50 (in vitro) [µg/mL] | further results
1 | C=CCON=Cc1ccc(OCCC2CCN(c3ccc(Cl)nn3)CC2)cc1 [Compound 13] | <0.0032 | >312 | 0.006 | 83 | 0.0078 | >1 | – | –
2 | CCON=Cc1cc(C)c(OCCCc2cc(C)no2)c(C)c1 [Compound 24] | <0.16 | >320 | <0.05 | >500 | – | >50 | – | Inhibitory activity compared with Pleconaril [2]: superior activity to Pleconaril
3 | CON=Cc1ccc(OCCC2CCN(c3ccc(Cl)nn3)CC2)c(OC)c1 [Compound 33] | 0.014 | >72.4 | 0.04 | >25 | 0.0138 | >1 | – | –
4 | CCON=Cc1ccc(OCCC2CCN(c3ccc(Cl)nn3)CC2)c(C)c1 [Compound 42] | 0.006 | >177.8 | 0.006 | >167 | 0.0111 | >1 | – | –
5 | CON=Cc1ccc(OCCC2CCN(c3ccc(Cl)nn3)CC2)c(C)c1 [Compound 44] | <0.003 | >312 | 0.026 | >38 | 0.0194 | >1 | – | –
6 | CCO/N=C/c1cc(C)c(OCCCc2cc(-c3ccccc3)no2)c(C)c1 [Compound 127, 3,5-Dimethyl-[4-{3-(3-Phenyl-5-isoxazolyl)propoxy)]benzaldehyde O-ethyloxime] | – | >3 | – | – | – | – | – | EC50 (HRV type 1A): 0.329 µg/mL (≈ 0.869 µM); Activity on Rhinovirus Type 1A MTC [3]: >1
7 | CCON=Cc1ccc(OCCC2CCN(c3ccc(C=O)nn3)CC2)cc1 [Compound 128, 4-(2-[1-(6-Formyl-3-pyridazinyl)-4-piperidinyl]ethoxy)benzaldehyde O-ethyloxime] | – | >15 | – | – | – | – | – | EC50 (HRV type 1A): 0.063 µg/mL (≈ 0.165 µM); Activity on Rhinovirus Type 1A MTC [3]: >1
8 | CCO/N=C/c1csc(OCCC2CCN(c3ccc(C)nn3)CC2)n1 [Compound 155, 2-(1-(6 methyl-3-pyridazinyl)-4-piperidinylethoxy)-thiazole-4-carboxaldehyde O-ethyl oxime] | – | – | – | – | – | – | > 0.5 | EC50 (Rhinovirus Type 14; [4]): 0.0138 µg/mL (≈ 0.0368 µM)
9 | CCO/N=C/c1ccc(OCCC2CCN(c3nnc(C)s3)CC2)cc1 [Compound 158] | – | – | – | – | – | – | > 0.5 | EC50 (Rhinovirus Type 14; [4]): 0.00095 µg/mL (≈ 0.00254 µM)
10 | CCO/N=C/c1ccc(OCCCCCN(C)c2ccc(Cl)nn2)cc1 [Compound 161] | – | – | – | – | – | – | > 0.5 | EC50 (Rhinovirus Type 14; [4]): 0.0348 µg/mL (≈ 0.0923 µM)
11 | CC(C)S(=O)(=O)n1c(N)nc2ccc(/C(=N/O)c3ccccc3)cc21 [Enviroxime] | – | 75.91 | – | – | – | – | – | EC50 (HRV type 1A): 0.006 µg/mL (≈ 0.0167 µM); EC50 (Enterovirus 70): 0.21 µg/mL (≈ 0.586 µM); EC50 (Coxsackie A21): 0.39 µg/mL (≈ 1.09 µM); Activity on Rhinovirus Type 1A MTC [3]: 0.49
12 | Cc1cc(CCCOc2c(C)cc(-c3noc(C(F)(F)F)n3)cc2C)on1 [Pleconaril, reference compound] | – | – | – | – | – | – | > 0.1 | EC50 (Rhinovirus Type 14; HRV14, read-out: Activity on Rhinovirus Type 14 EC50): 0.0608 µg/mL (≈ 0.159 µM)
